Assay results taken from EP4667464A1 (Cyrus Therapeutics Inc., priority 2023, dated 2024).
Like-named read-outs stand apart in the source and are kept apart here.

Experiments:
[1] = target: T1, KRAS G12C::SOS1 (Homo sapiens, UniProt Q07889); test: KRAS G12C::SOS1 protein-protein interaction (PPI) inhibition assay (HTRF); format: binding
T1 construct: purchased CISBIO 64KRASG12PEH
T1 sequence (Q07889 1-1333): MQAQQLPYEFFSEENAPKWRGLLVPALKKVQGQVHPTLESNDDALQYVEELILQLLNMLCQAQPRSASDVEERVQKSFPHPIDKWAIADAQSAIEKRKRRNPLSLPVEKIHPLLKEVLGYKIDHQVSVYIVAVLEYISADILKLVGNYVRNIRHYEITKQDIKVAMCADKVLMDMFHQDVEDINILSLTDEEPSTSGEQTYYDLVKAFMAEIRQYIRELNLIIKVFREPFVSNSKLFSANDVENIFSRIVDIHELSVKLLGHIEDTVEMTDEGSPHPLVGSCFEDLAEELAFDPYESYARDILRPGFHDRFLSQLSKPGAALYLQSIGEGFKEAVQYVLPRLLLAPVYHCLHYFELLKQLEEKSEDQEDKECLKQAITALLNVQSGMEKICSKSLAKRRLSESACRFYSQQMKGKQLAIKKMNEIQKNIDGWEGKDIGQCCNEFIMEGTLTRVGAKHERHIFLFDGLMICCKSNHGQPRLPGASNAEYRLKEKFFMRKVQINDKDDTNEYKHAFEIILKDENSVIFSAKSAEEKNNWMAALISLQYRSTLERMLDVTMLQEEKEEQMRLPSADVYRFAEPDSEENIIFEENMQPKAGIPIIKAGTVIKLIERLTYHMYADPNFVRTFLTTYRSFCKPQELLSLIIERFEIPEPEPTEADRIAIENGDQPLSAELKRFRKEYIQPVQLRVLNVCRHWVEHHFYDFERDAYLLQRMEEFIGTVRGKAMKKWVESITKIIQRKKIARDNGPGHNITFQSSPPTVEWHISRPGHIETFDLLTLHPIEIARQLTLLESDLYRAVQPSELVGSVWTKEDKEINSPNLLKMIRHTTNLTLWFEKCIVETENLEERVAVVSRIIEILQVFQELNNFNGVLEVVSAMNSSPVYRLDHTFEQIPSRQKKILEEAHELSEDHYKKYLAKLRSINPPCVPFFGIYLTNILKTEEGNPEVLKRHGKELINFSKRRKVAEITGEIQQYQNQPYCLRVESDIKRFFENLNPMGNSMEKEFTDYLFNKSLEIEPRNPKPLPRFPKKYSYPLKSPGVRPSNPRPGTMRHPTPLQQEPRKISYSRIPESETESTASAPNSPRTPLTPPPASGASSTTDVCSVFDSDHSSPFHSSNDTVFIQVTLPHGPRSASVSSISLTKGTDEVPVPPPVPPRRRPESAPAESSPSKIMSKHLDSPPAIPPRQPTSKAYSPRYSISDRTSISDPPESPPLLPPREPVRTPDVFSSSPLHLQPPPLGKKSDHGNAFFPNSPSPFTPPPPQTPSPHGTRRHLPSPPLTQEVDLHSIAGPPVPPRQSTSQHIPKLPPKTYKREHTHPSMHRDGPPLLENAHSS
Outline: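 Compounds, at eight 3-fold dilutions from 3 µM, were mixed with GTP-loaded Tag1-KRAS G12C, Tag2-SOS1 and a terbium-cryptate donor plus XL665 acceptor antibody pair. After 2 h at room temperature, time-resolved FRET reported the KRAS–SOS1 interaction.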

[2] = target: T2, SOS1 (Homo sapiens, UniProt Q07889); test: SOS-catalyzed nucleotide exchange assay (HTRF, SOS1-mediated GTP loading of KRAS G12D); format: biochemical
T2 construct: HIS-SOS1cat (160 nM; Cytoskeleton, US); His (N); purchased Cytoskeleton
T2 sequence (Q07889 564-1049 limits assumed): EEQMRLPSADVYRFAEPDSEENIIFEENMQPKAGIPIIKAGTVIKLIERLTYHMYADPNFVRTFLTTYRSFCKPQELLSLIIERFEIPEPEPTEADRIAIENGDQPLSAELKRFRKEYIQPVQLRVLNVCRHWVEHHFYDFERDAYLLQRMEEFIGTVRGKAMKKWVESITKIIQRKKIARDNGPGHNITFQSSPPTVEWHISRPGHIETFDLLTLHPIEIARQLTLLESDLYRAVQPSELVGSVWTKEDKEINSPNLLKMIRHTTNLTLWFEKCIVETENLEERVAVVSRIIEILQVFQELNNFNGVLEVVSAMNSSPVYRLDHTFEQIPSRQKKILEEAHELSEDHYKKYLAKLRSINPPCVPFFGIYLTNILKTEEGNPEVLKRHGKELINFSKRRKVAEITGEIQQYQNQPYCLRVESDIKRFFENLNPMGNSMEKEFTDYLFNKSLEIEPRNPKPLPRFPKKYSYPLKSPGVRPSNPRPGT

[3] = 8 concentrations from 3 µM, three replicates, read-out: KRAS G12C::SOS1 PPI
[4] = GST-KRAS G12D, HIS-SOS1cat, compound 128 pM to 10 µM, read-out: SOS-catalyzed nucleotide exchange assay

SMILES | IC50 [1, 3] | IC50 [2, 4] | IC50 [1] | IC50 [2]
CC(=O)N1CCC(n2nncc2-c2cncc(-n3nc(C(=O)N[C@H](C)c4cccc(C(F)(F)F)c4F)ccc3=O)c2)CC1 [Example 20-7, (R)-1-(5-(1-(1-acetylpiperidin-4-yl)-1H-1,2,3-triazol-5-yl)pyridin-3-yl)-N-(1-(2-fluoro-3-(trifluoromethyl)phenyl)ethyl)-6-oxo-1,6-dihydropyridazine-3-carboxamide] | < 50 nM | < 50 nM |  | 
C[C@@H](NC(=O)c1ccc(=O)n(-c2cnc(F)c(-c3cnnn3C)c2)n1)c1cccc(C(F)F)c1F [Example 6-1, N-{(1R)-1-(3-(difluoromethyl)-2-fluorophenyl)ethyl}-1-(6-fluoro-5-(1-methyl-1H-1,2,3-triazol-5-yl)pyridin-3-yl)-6-oxo-1,6-dihydropyridazine-3-carboxamide] | > 150 nM | 50 to 150 nM |  | 
[2H]C([2H])([2H])n1nncc1-c1cnc(F)c(-n2nc(C(=O)N[C@H](C)c3cccc(C(F)(F)F)c3F)cc(C#N)c2=O)c1 [Example 3-5, 5-cyano-N-[(1R)-1-(2-fluoro-3-(trifluoromethyl)phenyl)ethyl]-1-[2-fluoro-5-(1-(methyl-trideuterio)-1H-1,2,3-triazol-5-yl)pyridin-3-yl]-6-oxo-1,6-dihydropyridazine-3-carboxamide] | 50 to 150 nM | 50 to 150 nM |  | 
C[C@@H](NC(=O)c1ccc(=O)n(-c2cncc(-c3cnnn3C)n2)c1)c1cccc(C(F)(F)F)c1F [Example 1-48, N-{(R)-1-[2-fluoro-3-(trifluoromethyl)phenyl]ethyl}-1-[6-(1-methyl-1H-1,2,3-triazol-5-yl)pyrazin-2-yl]-6-oxo-1,6-dihydropyridine-3-carboxamide] | > 150 nM | > 150 nM |  | 
CC(=O)N1CC(n2nncc2-c2cncc(-n3nc(C(=O)N[C@H](C)c4cccc(C(F)(F)F)c4F)ccc3=O)c2)C1 [Example 20-10, (R)-1-(5-(1-(1-acetylazetidin-3-yl)-1H-1,2,3-triazol-5-yl)pyridin-3-yl)-N-(1-(2-fluoro-3-(trifluoromethyl)phenyl)ethyl)-6-oxo-1,6-dihydropyridazine-3-carboxamide] | < 50 nM | < 50 nM |  | 
C[C@@H](NC(=O)c1ccc(=O)n(-c2cncc(-c3cnnn3C3CN(S(C)(=O)=O)C3)c2)n1)c1cccc(C(F)(F)F)c1F [Example 20-12, (R)-N-(1-(2-fluoro-3-(trifluoromethyl)phenyl)ethyl)-1-(5-(1-(1-(methylsulfonyl)azetidin-3-yl)-1H-1,2,3-triazol-5-yl)pyridin-3-yl)-6-oxo-1,6-dihydropyridazine-3-carboxamide] | < 50 nM | < 50 nM |  | 
C[C@@H](NC(=O)c1ccc(=O)n(-c2cncc(-c3cnnn3[C@@H]3CC3(F)F)c2)n1)c1cccc(C(F)(F)F)c1F [Example 24, 1-[5-[3-[(1R)-2,2-difluorocyclopropyl]triazol-4-yl]-3-pyridyl]-N-[(1R)-1-[2-fluoro-3-(trifluoromethyl)phenyl]ethyl]-6-oxo-pyridazine-3-carboxamide] |  |  | > 150 nM | 50 to 150 nM
[2H]C([2H])([2H])[C@@H](NC(=O)c1ccc(=O)n(-c2cncc(-c3cnnn3C([2H])([2H])[2H])c2)n1)c1cccc(C(F)(F)F)c1F [Example 1-36, N-{(R)-1-[2-fluoro-3-(trifluoromethyl)phenyl]-ethyl-(2,2,2-trideuterio)}-1-(5-{1-[trideuteriomethyl]-1H-1,2,3-triazol-5-yl}-3-pyridyl)-6-oxo-1,6-dihydropyridazine-3-carboxamide] | 50 to 150 nM | < 50 nM |  | 
CCN1CC(n2nncc2-c2cncc(-n3nc(C(=O)N[C@H](C)c4cccc(C(F)(F)F)c4F)ccc3=O)c2)C1 [Example 20-9, (R)-1-(5-(1-(1-ethylazetidin-3-yl)-1H-1,2,3-triazol-5-yl)pyridin-3-yl)-N-(1-(2-fluoro-3-(trifluoromethyl)phenyl)ethyl)-6-oxo-1,6-dihydropyridazine-3-carboxamide] | < 50 nM | < 50 nM |  | 
C[C@@H](NC(=O)c1ccc(=O)n(-c2cncc(-c3cnnn3C3CC3)c2)n1)c1cccc(C(F)F)c1F [Example 1-51, N-[(1R)-1-[3-(difluoromethyl)-2-fluorophenyl]ethyl]-1-[5-(1-cyclopropyl-1H-1,2,3-triazol-5-yl)-3-pyridyl]-6-oxo-pyridazine-3-carboxamide] | 50 to 150 nM | < 50 nM |  | 
C[C@@H](O)c1cc(C(=O)N[C@H](C)c2cccc(C(F)(F)F)c2F)nn(-c2cncc(-c3cnnn3C)c2)c1=O (single isomer, unassigned) [Example 9] | 50 to 150 nM | < 50 nM |  | 
C[C@@H](NC(=O)c1cc(C(F)(F)F)c(=O)n(-c2cncc(-c3cnnn3C)c2)n1)c1cccc(C(F)(F)F)c1F [Example 1-69, N-[(R)-1-[2-fluoro-3-(trifluoromethyl)phenyl]ethyl]-1-[5-(1-methyl-1H-1,2,3-triazol-5-yl)-3-pyridyl]-6-oxo-5-(trifluoromethyl)-pyridazine-3-carboxamide] | < 50 nM | 50 to 150 nM |  | 
[2H]c1cc(C(=O)N[C@H](C)c2cccc(C(F)(F)F)c2F)nn(-c2cncc(-c3cnnn3C)c2)c1=O [Example 1-38, N-{(R)-1-[2-fluoro-3-(trifluoromethyl)phenyl]ethyl}-1-[5-(1-methyl-1H-1,2,3-triazol-5-yl)-3-pyridyl]-6-oxo-1,6-dihydropyridazine-5-deuterio-3-carboxamide] | < 50 nM | 50 to 150 nM |  | 
C[C@@H](NC(=O)c1ccc(=O)n(-c2cncc(-c3cnnn3C3COC3)c2)n1)c1cccc(C(F)(F)F)c1F [Example 1-57, 1-[5-[1-(oxetan-3-yl)triazol-5-yl]-3-pyridyl]-6-oxo-N-[(1R)-1-[2-fluoro-3-(trifluoromethyl)phenyl]ethyl]pyridazine-3-carboxamide] | 50 to 150 nM | < 50 nM |  | 
C[C@@H](NC(=O)c1ccc(=O)n(-c2cncc(-c3c(Cl)nnn3C)c2)n1)c1cccc(C(F)F)c1F [Example 13, N-{(R)-1-[3-(difluoromethyl)-2-fluorophenyl]ethyl}-1-[5-(4-chloro-1-methyl-1H-1,2,3-triazol-5-yl)-3-pyridyl]-6-oxo-1,6-dihydropyridazine-3-carboxamide] | > 150 nM | 50 to 150 nM |  | 
C[C@@H](NC(=O)c1ccc(=O)n(-c2cncc(-c3cnnn3C3CCC3)c2)n1)c1cccc(C(F)(F)CO)c1F [Example 1-55, 1-[5-(1-cyclobutyl-1H-1,2,3-triazol-5-yl)-3-pyridyl]-N-[(1R)-1-[3-(1,1-difluoro-2-hydroxy-ethyl)-2-fluoro-phenyl]ethyl]-6-oxo-pyridazine-3-carboxamide] | < 50 nM | < 50 nM |  | 
C[C@@H](NC(=O)c1ccc(=O)n(-c2cncc(-c3cnnn3[C@@H]3CC3(F)F)c2)n1)c1cccc(C(F)(F)CO)c1F (single isomer, unassigned) [Example 26] |  |  | < 50 nM | < 50 nM
